Assays:
Assay type in all cases: in vivo
Details in all cases: evaluated after 13 days
[1] = system: Zea mays (ZEAMX); experiment: Pre-emergence Test (Table B1); design: key: 5=81-100%; 4=61-80%; 3=41-60%; 2=21-40%; 1=0-20%; 0=inactive
[2] = system: Amaranthus palmeri (AMAPA); experiment: Post-emergence Test (Table B2)
Method: (§1) Seeds of a variety of test species are sown in standard soil in pots (Amaranthus palmeri (AMAPA), Setaria faberi (SETFA), Echinochloa crus-galli (ECHCG), (Amaranthus retroflexus (AMARE), Zea mays (ZEAMX), Ipomoea hederacea (IPOHE)). After 8 days cultivation under controlled conditions in a glasshouse (at 24° C./16° C., day/night; 14 hours light; 65% humidity), the plants are sprayed with an aqueous spray solution derived from the formulation of the technical active ingredient in acetone/water (50:50) solution containing 0.5% Tween 20 (polyoxyethelyene sorbitan monolaurate, CAS RN 9005-64-5). Compounds are applied at 1000 g/ha unless otherwise stated. The test plants are then grown in a glasshouse under controlled conditions in a glasshouse (at 24° C./16° C., day/night; 14 hours light; 65% humidity) and watered twice daily. After 13 days the test is evaluated for the percentage damage caused to the plant.

[3] = system: Amaranthus retroflexus (AMARE); experiment: Post-emergence Test (Table B2)
Method: as §1

[4] = system: Setaria faberi (SETFA); experiment: Post-emergence Test (Table B2)
Method: as §1

[5] = system: Setaria faberi (SETFA); experiment: Pre-emergence Test (Table B1); design: key: 5=81-100%; 4=61-80%; 3=41-60%; 2=21-40%; 1=0-20%; 0=inactive
[6] = system: Echinochloa crus-galli (ECHCG); experiment: Pre-emergence Test (Table B1); design: key: 5=81-100%; 4=61-80%; 3=41-60%; 2=21-40%; 1=0-20%; 0=inactive
[7] = system: Ipomoea hederacea (IPOHE); experiment: Pre-emergence Test (Table B1); design: key: 5=81-100%; 4=61-80%; 3=41-60%; 2=21-40%; 1=0-20%; 0=inactive
[8] = system: Amaranthus retroflexus (AMARE); experiment: Pre-emergence Test (Table B1)
[9] = system: Zea mays (ZEAMX); experiment: Post-emergence Test (Table B2); design: key: 5=81-100%; 4=61-80%; 3=41-60%; 2=21-40%; 1=0-20%; 0=inactive
Method: as §1

[10] = system: Echinochloa crus-galli (ECHCG); experiment: Post-emergence Test (Table B2); design: key: 5=81-100%; 4=61-80%; 3=41-60%; 2=21-40%; 1=0-20%; 0=inactive
Method: as §1

[11] = system: Ipomoea hederacea (IPOHE); experiment: Post-emergence Test (Table B2); design: key: 5=81-100%; 4=61-80%; 3=41-60%; 2=21-40%; 1=0-20%; 0=inactive
Method: as §1

[12] = system: Amaranthus palmeri (AMAPA); experiment: Pre-emergence Test (Table B1)
[13] = lower rate of 250 g per hectare

Structure (SMILES)	percentage damage caused to the plant, ZEAMX ([1]; 1000 g/ha)	percentage damage caused to the plant, AMAPA ([2]; 1000 g/ha)	percentage damage caused to the plant, AMARE ([3]; 1000 g/ha)	percentage damage caused to the plant, SETFA ([4]; 1000 g/ha)	percentage damage caused to the plant, SETFA ([5]; 1000 g/ha)	percentage damage caused to the plant, ECHCG ([6]; 1000 g/ha)	percentage damage caused to the plant, IPOHE ([7]; 1000 g/ha)	percentage damage caused to the plant, AMARE ([8]; 1000 g/ha)	percentage damage caused to the plant, ZEAMX ([9]; 1000 g/ha)	percentage damage caused to the plant, ECHCG ([10]; 1000 g/ha)	percentage damage caused to the plant, IPOHE ([11]; 1000 g/ha)	percentage damage caused to the plant, AMAPA ([12]; 1000 g/ha)	also measured
C#CCOC(=O)c1cc(-c2c(C)n(CC)c(-c3ccc(Cl)c(Cl)c3)c(C(=O)O)c2=O)c(F)cc1Cl [Compound 2, 5-(4-chloro-2-fluoro-5-prop-2-ynoxycarbonyl-phenyl)-2-(3,4-dichlorophenyl)-1-ethyl-6-methyl-4-oxo-pyridine-3-carboxylic acid]	0	5 (5=81-100%)	5 (5=81-100%)	5 (5=81-100%)	1 (1=0-20%)	0	0	5 (5=81-100%)	5 (5=81-100%)	4 (4=61-80%)	4 (4=61-80%)	5 (5=81-100%)	
C#CC(C)OC(=O)c1ccc(F)c(-c2c(C)n(CC)c(-c3ccc(Cl)c(Cl)c3)c(C(=O)O)c2=O)c1 (stereo not drawn) [Compound 12, 2-(3,4-dichlorophenyl)-1-ethyl-5-[2-fluoro-5-(1-methylprop-2-ynoxycarbonyl)phenyl]-6-methyl-4-oxo-pyridine-3-carboxylic acid]	1 (1=0-20%)	5 (5=81-100%)	5 (5=81-100%)	5 (5=81-100%)	4 (4=61-80%)	3 (3=41-60%)	1 (1=0-20%)	5 (5=81-100%)	3 (3=41-60%)	4 (4=61-80%)	2 (2=21-40%)	4 (4=61-80%)	
CCOCC(C)OC(=O)c1ccc(F)c(-c2c(C)n(CC)c(-c3ccc(Cl)c(Cl)c3)c(C(=O)O)c2=O)c1 (stereo not drawn) [Compound 14, 2-(3,4-dichlorophenyl)-5-[5-(2-ethoxy-1-methyl-ethoxy)carbonyl-2-fluoro-phenyl]-1-ethyl-6-methyl-4-oxo-pyridine-3-carboxylic acid]	0	5 (5=81-100%)	5 (5=81-100%)	3 (3=41-60%)	3 (3=41-60%)	0	0	5 (5=81-100%)	1 (1=0-20%)	3 (3=41-60%)	0	5 (5=81-100%)	
CCn1c(C)c(-c2cc(C(=O)OC(C)CF)ccc2F)c(=O)c(C(=O)O)c1-c1ccc(Cl)c(Cl)c1 (stereo not drawn) [Compound 9, 2-(3,4-dichlorophenyl)-1-ethyl-5-[2-fluoro-5-(2-fluoro-1-methyl-ethoxy)carbonyl-phenyl]-6-methyl-4-oxo-pyridine-3-carboxylic acid]	1 (1=0-20%)	4 (4=61-80%)	5 (5=81-100%)	3 (3=41-60%)	2 (2=21-40%)	1 (1=0-20%)	0	5 (5=81-100%)	2 (2=21-40%)	2 (2=21-40%)	1 (1=0-20%)	5 (5=81-100%)	
CCn1c(C)c(-c2cc(C(=O)OC(C)C3CC3)ccc2F)c(=O)c(C(=O)O)c1-c1ccc(Cl)c(Cl)c1 (stereo not drawn) [Compound 8, 5-[5-(1-cyclopropylethoxycarbonyl)-2-fluoro-phenyl]-2-(3,4-dichlorophenyl)-1-ethyl-6-methyl-4-oxo-pyridine-3-carboxylic acid]	0	5 (5=81-100%)	4 (4=61-80%)	2 (2=21-40%)	0	0	0	5 (5=81-100%)	3 (3=41-60%)	1 (1=0-20%)	1 (1=0-20%)	4 (4=61-80%)	
C#CC(C)OC(=O)c1cc(-c2c(C)n(CC)c(-c3ccc(Cl)c(Cl)c3)c(C(=O)O)c2=O)c(F)cc1Cl (stereo not drawn) [Compound 20, 5-[4-chloro-2-fluoro-5-(1-methylprop-2-ynoxycarbonyl)phenyl]-2-(3,4-dichlorophenyl)-1-ethyl-6-methyl-4-oxo-pyridine-3-carboxylic acid]	0	5 (5=81-100%)	5 (5=81-100%)	5 (5=81-100%)	3 (3=41-60%)	3 (3=41-60%)	0	5 (5=81-100%)	4 (4=61-80%)	5 (5=81-100%)	4 (4=61-80%)	5 (5=81-100%)	
CCn1c(C)c(-c2cc(C(=O)OC(C)CC(=O)OC)c(Cl)cc2F)c(=O)c(C(=O)O)c1-c1ccc(Cl)c(Cl)c1 (stereo not drawn) [Compound 42, 5-[4-chloro-2-fluoro-5-(3-methoxy-1-methyl-3-oxo-propoxy)carbonyl-phenyl]-2-(3,4-dichlorophenyl)-1-ethyl-6-methyl-4-oxo-pyridine-3-carboxylic acid]													percentage damage caused to the plant, ZEAMX [1, 13]: 1 (1=0-20%); percentage damage caused to the plant, AMAPA [2, 13]: 4 (4=61-80%); percentage damage caused to the plant, AMARE [3, 13]: 5 (5=81-100%); percentage damage caused to the plant, SETFA [4, 13]: 2 (2=21-40%); percentage damage caused to the plant, SETFA [5, 13]: 0; percentage damage caused to the plant, ECHCG [6, 13]: 0; percentage damage caused to the plant, IPOHE [7, 13]: 0; percentage damage caused to the plant, AMARE [8, 13]: 3 (3=41-60%); percentage damage caused to the plant, ZEAMX [9, 13]: 3 (3=41-60%); percentage damage caused to the plant, ECHCG [10, 13]: 2 (2=21-40%); percentage damage caused to the plant, IPOHE [11, 13]: 3 (3=41-60%); percentage damage caused to the plant, AMAPA [12, 13]: 1 (1=0-20%)
C=C(C)COC(=O)c1cc(-c2c(C)n(CC)c(-c3ccc(Cl)c(Cl)c3)c(C(=O)O)c2=O)c(F)cc1Cl [Compound 1, 5-[4-chloro-2-fluoro-5-(2-methylallyloxycarbonyl)phenyl]-2-(3,4-dichlorophenyl)-1-ethyl-6-methyl-4-oxo-pyridine-3-carboxylic acid]	0	5 (5=81-100%)	5 (5=81-100%)	4 (4=61-80%)	4 (4=61-80%)	1 (1=0-20%)	2 (2=21-40%)	5 (5=81-100%)	2 (2=21-40%)	5 (5=81-100%)	2 (2=21-40%)	5 (5=81-100%)	
